Laboratory results: US12195427B2, “MASP-2 inhibitors and methods of use” (priority 2018, dated 2025)

Target: MASP-2 CCP2-SP (Homo sapiens (Human), UniProt O00187)
Test: MASP-2 co-crystallization, X-ray crystallography and structure analysis (H-bonds, van der Waals contacts);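 on Ligand-pharmacophore element distance, pharmacophore element C2: distance from averaged pharmacophore element to bound ligand; missing value means element absent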;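 on Ligand-pharmacophore element distance, pharmacophore element C3: distance from averaged pharmacophore element to bound ligand; missing value means element absent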;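 on Ligand-pharmacophore element distance, pharmacophore element C4: distance from averaged pharmacophore element to bound ligand; missing value means element absent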;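 on Ligand-pharmacophore element distance, pharmacophore element C5: distance from averaged pharmacophore element to bound ligand; missing value means element absent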
Set-up: van der Waals contact distance, MASP-2 HIS 483 atom CD2 / van der Waals contact distance, MASP-2 HIS 483 atom NE2 / van der Waals contact distance, SER 654 C to compound atom / van der Waals contact distance, SER 654 O to compound atom / van der Waals contact distance, TRP 655 C to compound atom / van der Waals contact distance, MASP-2 GLY 528 atom CA / van der Waals contact distance TRP 655 atom CZ3 / van der Waals contact distance TRP 655 atom N / van der Waals contact distance TRP 655 atom CE3 / van der Waals contact distance GLY 656 atom C / van der Waals contact distance GLY 656 atom CA / van der Waals contact distance GLY 656 atom O / van der Waals contact distance, MASP-2 TYR 607 atom CD1 / van der Waals contact distance, MASP-2 PRO 606 atom O / d(C3,CA1) / d(CA1,N1)2 / d(H4,O1) / d(H4,O2) / d(O1,O2) / d(CA1,O2) / d(CA6,O1) / d(CA6,O2) / d(CA1,C5) / d(O2,H3) / d(N2,C2) / d(CA5,N2) / d(N2,C4) / d(N2,C6) / d(N2,CA3) / d(N2,O3) / d(O4,H2): unit not given beside the values
Settings: Table A4-1; element C2
How it was run: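 First, CCP2-SP constructs with or without a 6His tag are produced in E. coli. Crystals are then soaked once or twice with inhibitor, cryoprotected in 20% glycerol or frozen directly, and diffracted at synchrotron beamlines. Phasing uses molecular replacement with parts of 1Q3X.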

Sequence of MASP-2 CCP2-SP (O00187 445-686): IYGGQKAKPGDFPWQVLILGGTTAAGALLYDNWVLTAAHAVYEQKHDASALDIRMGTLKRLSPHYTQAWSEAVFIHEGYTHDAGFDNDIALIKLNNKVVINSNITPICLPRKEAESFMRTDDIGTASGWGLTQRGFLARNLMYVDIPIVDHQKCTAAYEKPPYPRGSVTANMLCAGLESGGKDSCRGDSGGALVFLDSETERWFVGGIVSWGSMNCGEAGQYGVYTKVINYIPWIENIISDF
Sequence of MASP-2 CCP2-SP (O00187 364-432 partner): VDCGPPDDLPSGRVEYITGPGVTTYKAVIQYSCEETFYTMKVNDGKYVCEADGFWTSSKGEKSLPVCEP

Structure (SMILES)	Ligand-pharmacophore element distance, pharmacophore element C2
Cc1nc(N)ccc1CNC(=O)C(C)NC(=O)C1CC(c2cccc3ccccc23)CCN1.Cl.Cl (stereo not drawn) [1297_3]	0.28
Cc1nc(N)ccc1CNC(=O)[C@H](C)NC(=O)[C@H]1C[C@@H](c2cccc3ccccc23)CCN1.Cl.Cl [1297_4]	0.31
Cc1nc(N)ccc1CNC(=O)[C@H](C)NC(=O)[C@H]1C[C@@H](c2cccc3ccccc23)CCN1.Cl.Cl [1297_5]	0.24

Same assay, conditions: Table A4-1; element C3

Structure (SMILES)	Ligand-pharmacophore element distance, pharmacophore element C3
Cc1nc(N)ccc1CNC(=O)C(C)NC(=O)C1CC(c2cccc3ccccc23)CCN1.Cl.Cl (stereo not drawn) [1297_3]	0.23
Cc1nc(N)ccc1CNC(=O)[C@H](C)NC(=O)[C@H]1C[C@@H](c2cccc3ccccc23)CCN1.Cl.Cl [1297_4]	0.18
Cc1nc(N)ccc1CNC(=O)[C@H](C)NC(=O)[C@H]1C[C@@H](c2cccc3ccccc23)CCN1.Cl.Cl [1297_5]	0.29

Same assay, conditions: Table A4-1; element C4

Structure (SMILES)	Ligand-pharmacophore element distance, pharmacophore element C4
Cc1nc(N)ccc1CNC(=O)C(C)NC(=O)C1CC(c2cccc3ccccc23)CCN1.Cl.Cl (stereo not drawn) [1297_3]	0
Cc1nc(N)ccc1CNC(=O)[C@H](C)NC(=O)[C@H]1C[C@@H](c2cccc3ccccc23)CCN1.Cl.Cl [1297_4]	0
Cc1nc(N)ccc1CNC(=O)[C@H](C)NC(=O)[C@H]1C[C@@H](c2cccc3ccccc23)CCN1.Cl.Cl [1297_5]	0

Same assay, conditions: Table A4-1; element C5

Structure (SMILES)	Ligand-pharmacophore element distance, pharmacophore element C5
Cc1nc(N)ccc1CNC(=O)C(C)NC(=O)C1CC(c2cccc3ccccc23)CCN1.Cl.Cl (stereo not drawn) [1297_3]	0
Cc1nc(N)ccc1CNC(=O)[C@H](C)NC(=O)[C@H]1C[C@@H](c2cccc3ccccc23)CCN1.Cl.Cl [1297_4]	0
Cc1nc(N)ccc1CNC(=O)[C@H](C)NC(=O)[C@H]1C[C@@H](c2cccc3ccccc23)CCN1.Cl.Cl [1297_5]	0

Same assay, conditions: Table A4-1; element C6

Structure (SMILES)	Ligand-pharmacophore element distance, pharmacophore element C6
Cc1nc(N)ccc1CNC(=O)C(C)NC(=O)C1CC(c2cccc3ccccc23)CCN1.Cl.Cl (stereo not drawn) [1297_3]	0
Cc1nc(N)ccc1CNC(=O)[C@H](C)NC(=O)[C@H]1C[C@@H](c2cccc3ccccc23)CCN1.Cl.Cl [1297_4]	0
Cc1nc(N)ccc1CNC(=O)[C@H](C)NC(=O)[C@H]1C[C@@H](c2cccc3ccccc23)CCN1.Cl.Cl [1297_5]	0

Same assay, conditions: Table A4-1; element C7

Structure (SMILES)	Ligand-pharmacophore element distance, pharmacophore element C7
Cc1nc(N)ccc1CNC(=O)C(C)NC(=O)C1CC(c2cccc3ccccc23)CCN1.Cl.Cl (stereo not drawn) [1297_3]	0
Cc1nc(N)ccc1CNC(=O)[C@H](C)NC(=O)[C@H]1C[C@@H](c2cccc3ccccc23)CCN1.Cl.Cl [1297_4]	0
Cc1nc(N)ccc1CNC(=O)[C@H](C)NC(=O)[C@H]1C[C@@H](c2cccc3ccccc23)CCN1.Cl.Cl [1297_5]	0

Same assay, conditions: Table A4-1; element CA1

Structure (SMILES)	Ligand-pharmacophore element distance, pharmacophore element CA1
Cc1nc(N)ccc1CNC(=O)C(C)NC(=O)C1CC(c2cccc3ccccc23)CCN1.Cl.Cl (stereo not drawn) [1297_3]	0.33
Cc1nc(N)ccc1CNC(=O)[C@H](C)NC(=O)[C@H]1C[C@@H](c2cccc3ccccc23)CCN1.Cl.Cl [1297_4]	0.48
Cc1nc(N)ccc1CNC(=O)[C@H](C)NC(=O)[C@H]1C[C@@H](c2cccc3ccccc23)CCN1.Cl.Cl [1297_5]	0.44

Same assay, conditions: Table A4-1; element CA2

Structure (SMILES)	Ligand-pharmacophore element distance, pharmacophore element CA2
Cc1nc(N)ccc1CNC(=O)C(C)NC(=O)C1CC(c2cccc3ccccc23)CCN1.Cl.Cl (stereo not drawn) [1297_3]	0.22
Cc1nc(N)ccc1CNC(=O)[C@H](C)NC(=O)[C@H]1C[C@@H](c2cccc3ccccc23)CCN1.Cl.Cl [1297_4]	0.24
Cc1nc(N)ccc1CNC(=O)[C@H](C)NC(=O)[C@H]1C[C@@H](c2cccc3ccccc23)CCN1.Cl.Cl [1297_5]	0.07

Same assay, conditions: Table A4-1; element CA3

Structure (SMILES)	Ligand-pharmacophore element distance, pharmacophore element CA3
Cc1nc(N)ccc1CNC(=O)C(C)NC(=O)C1CC(c2cccc3ccccc23)CCN1.Cl.Cl (stereo not drawn) [1297_3]	0
Cc1nc(N)ccc1CNC(=O)[C@H](C)NC(=O)[C@H]1C[C@@H](c2cccc3ccccc23)CCN1.Cl.Cl [1297_4]	0
Cc1nc(N)ccc1CNC(=O)[C@H](C)NC(=O)[C@H]1C[C@@H](c2cccc3ccccc23)CCN1.Cl.Cl [1297_5]	0

Same assay, conditions: Table A4-1; element CA4

Structure (SMILES)	Ligand-pharmacophore element distance, pharmacophore element CA4
Cc1nc(N)ccc1CNC(=O)C(C)NC(=O)C1CC(c2cccc3ccccc23)CCN1.Cl.Cl (stereo not drawn) [1297_3]	0.94
Cc1nc(N)ccc1CNC(=O)[C@H](C)NC(=O)[C@H]1C[C@@H](c2cccc3ccccc23)CCN1.Cl.Cl [1297_4]	0.98
Cc1nc(N)ccc1CNC(=O)[C@H](C)NC(=O)[C@H]1C[C@@H](c2cccc3ccccc23)CCN1.Cl.Cl [1297_5]	1.22

Same assay, conditions: Table A4-1; element CA5

Structure (SMILES)	Ligand-pharmacophore element distance, pharmacophore element CA5
Cc1nc(N)ccc1CNC(=O)C(C)NC(=O)C1CC(c2cccc3ccccc23)CCN1.Cl.Cl (stereo not drawn) [1297_3]	0
Cc1nc(N)ccc1CNC(=O)[C@H](C)NC(=O)[C@H]1C[C@@H](c2cccc3ccccc23)CCN1.Cl.Cl [1297_4]	0
Cc1nc(N)ccc1CNC(=O)[C@H](C)NC(=O)[C@H]1C[C@@H](c2cccc3ccccc23)CCN1.Cl.Cl [1297_5]	0

Same assay, conditions: Table A4-1; element CA6

Structure (SMILES)	Ligand-pharmacophore element distance, pharmacophore element CA6
Cc1nc(N)ccc1CNC(=O)C(C)NC(=O)C1CC(c2cccc3ccccc23)CCN1.Cl.Cl (stereo not drawn) [1297_3]	0
Cc1nc(N)ccc1CNC(=O)[C@H](C)NC(=O)[C@H]1C[C@@H](c2cccc3ccccc23)CCN1.Cl.Cl [1297_4]	0
Cc1nc(N)ccc1CNC(=O)[C@H](C)NC(=O)[C@H]1C[C@@H](c2cccc3ccccc23)CCN1.Cl.Cl [1297_5]	0

Same assay, conditions: Table A5-1 pharmacophore: distance between elements, S2/S1 region

Structure (SMILES)	d(C3,CA1)	d(CA1,N1)2	d(CA1,O1)	d(CA1,O2)	d(H4,O1)	d(H4,O2)	d(O1,O2)
Cc1nc(N)ccc1CNC(=O)C(C)NC(=O)C1CC(c2cccc3ccccc23)CCN1.Cl.Cl (stereo not drawn) [1297_3]	2.85	1.39	4.43	3.92	4.37	3.85	3.55
Cc1nc(N)ccc1CNC(=O)[C@H](C)NC(=O)[C@H]1C[C@@H](c2cccc3ccccc23)CCN1.Cl.Cl [1297_4]	2.87	1.37	4.44	3.67	4.35	3.67	3.50
Cc1nc(N)ccc1CNC(=O)[C@H](C)NC(=O)[C@H]1C[C@@H](c2cccc3ccccc23)CCN1.Cl.Cl [1297_5]	2.86	1.38	4.59	3.88	4.56	3.82	3.43

Same assay, conditions: Table A5-2 pharmacophore distance, S3/S4 region

Structure (SMILES)	d(N2,C2)	d(N2,CA2)	d(O2,H3)	d(O2,N2)
Cc1nc(N)ccc1CNC(=O)C(C)NC(=O)C1CC(c2cccc3ccccc23)CCN1.Cl.Cl (stereo not drawn) [1297_3]	1.43	5.64	4.22	2.72
Cc1nc(N)ccc1CNC(=O)[C@H](C)NC(=O)[C@H]1C[C@@H](c2cccc3ccccc23)CCN1.Cl.Cl [1297_4]	1.47	5.72	4.02	2.76
Cc1nc(N)ccc1CNC(=O)[C@H](C)NC(=O)[C@H]1C[C@@H](c2cccc3ccccc23)CCN1.Cl.Cl [1297_5]	1.43	5.69	4.06	2.67

Same assay, conditions: Table A6-1 pharmacophore angle

Structure (SMILES)	a(C3, CA1, O1)	a(CA1, O1, O2)	a(O1, O2, H4)
Cc1nc(N)ccc1CNC(=O)C(C)NC(=O)C1CC(c2cccc3ccccc23)CCN1.Cl.Cl (stereo not drawn) [1297_3]	150.32	107.42	129.38
Cc1nc(N)ccc1CNC(=O)[C@H](C)NC(=O)[C@H]1C[C@@H](c2cccc3ccccc23)CCN1.Cl.Cl [1297_4]	149.60	103.60	129.06
Cc1nc(N)ccc1CNC(=O)[C@H](C)NC(=O)[C@H]1C[C@@H](c2cccc3ccccc23)CCN1.Cl.Cl [1297_5]	150.41	102.43	132.64

Same assay, conditions: Table A6-1 pharmacophore angle; Methyl-amino-pyridine compounds

Structure (SMILES)	a(N1, CA1, O1) b)
Cc1nc(N)ccc1CNC(=O)C(C)NC(=O)C1CC(c2cccc3ccccc23)CCN1.Cl.Cl (stereo not drawn) [1297_3]	174.78
Cc1nc(N)ccc1CNC(=O)[C@H](C)NC(=O)[C@H]1C[C@@H](c2cccc3ccccc23)CCN1.Cl.Cl [1297_4]	174.41
Cc1nc(N)ccc1CNC(=O)[C@H](C)NC(=O)[C@H]1C[C@@H](c2cccc3ccccc23)CCN1.Cl.Cl [1297_5]	174.11

Same assay, conditions: Table A6-2 pharmacophore angle

Structure (SMILES)	a(O1, O2, H3)	a(O1, O2, N2)	a(O2, N2, C2)	a(O2, N2, CA2)
Cc1nc(N)ccc1CNC(=O)C(C)NC(=O)C1CC(c2cccc3ccccc23)CCN1.Cl.Cl (stereo not drawn) [1297_3]	143.41	144.44	132.31	156.50
Cc1nc(N)ccc1CNC(=O)[C@H](C)NC(=O)[C@H]1C[C@@H](c2cccc3ccccc23)CCN1.Cl.Cl [1297_4]	145.24	143.80	131.10	156.08
Cc1nc(N)ccc1CNC(=O)[C@H](C)NC(=O)[C@H]1C[C@@H](c2cccc3ccccc23)CCN1.Cl.Cl [1297_5]	146.79	147.10	132.77	157.05

Same assay, conditions: Table A7-1; between pharmacophore elements of the bound compound

Structure (SMILES)	Pharmacophore torsion angle a(C3, CA1, O1, H4)	Pharmacophore torsion angle a(H4, O1, O2, H3)	Pharmacophore torsion angle a(H4, O1, O2, N2)	Pharmacophore torsion angle a(N1, CA1, O1, H4)	Pharmacophore torsion angle a(O1, H4, O2, CA1)	Pharmacophore torsion angle a(O1, O2, N2, C2)
Cc1nc(N)ccc1CNC(=O)C(C)NC(=O)C1CC(c2cccc3ccccc23)CCN1.Cl.Cl (stereo not drawn) [1297_3]	28.95	50.29	141.16	22.83	−86.03	114.36
Cc1nc(N)ccc1CNC(=O)[C@H](C)NC(=O)[C@H]1C[C@@H](c2cccc3ccccc23)CCN1.Cl.Cl [1297_4]	28.23	51.40	142.36	26.25	−89.51	110.29
Cc1nc(N)ccc1CNC(=O)[C@H](C)NC(=O)[C@H]1C[C@@H](c2cccc3ccccc23)CCN1.Cl.Cl [1297_5]	30.12	47.86	144.38	10.41	−86.41	111.81

Same assay, conditions: Table A7-2; between pharmacophore elements of the bound compound

Structure (SMILES)	Pharmacophore torsion angle a(O1, O2, N2, CA2)	Pharmacophore torsion angle a(O1, O2, N2, CA4)
Cc1nc(N)ccc1CNC(=O)C(C)NC(=O)C1CC(c2cccc3ccccc23)CCN1.Cl.Cl (stereo not drawn) [1297_3]	129.56	108.64
Cc1nc(N)ccc1CNC(=O)[C@H](C)NC(=O)[C@H]1C[C@@H](c2cccc3ccccc23)CCN1.Cl.Cl [1297_4]	126.11	105.94
Cc1nc(N)ccc1CNC(=O)[C@H](C)NC(=O)[C@H]1C[C@@H](c2cccc3ccccc23)CCN1.Cl.Cl [1297_5]	122.50	101.00
